Laboratory results as given in US7179461B2, “Plasminogen activator to prevent corneal and subepithelial haze after laser vision correction surgery” (The Johns Hopkins University, priority 2000, dated 2007).
Read-outs that look alike come from different tables or passages of the source.

Columns and labels:
[1] = test system: rabbit corneal endothelium; settings: perfused in vitro for three hours, concentrations up to 5,000 IU/ml; cited from earlier work
corneal haze after PRK = settings: rabbits, excimer laser PRK; cited from earlier work
[2] = target: T1, urokinase-type plasminogen activator (uPA) in rabbit tears (Oryctolagus cuniculus, UniProt Q8MHY7); experiment: Plasminogen activator activity in rabbit tears after PRK, spectrophotometric method with human plasminogen and S-2251; assay type: in vivo, New Zealand rabbits
T1 construct: from tissue; host or cells: rabbit tear fluid collected with glass capillaries
T1 sequence (Q8MHY7 17-433): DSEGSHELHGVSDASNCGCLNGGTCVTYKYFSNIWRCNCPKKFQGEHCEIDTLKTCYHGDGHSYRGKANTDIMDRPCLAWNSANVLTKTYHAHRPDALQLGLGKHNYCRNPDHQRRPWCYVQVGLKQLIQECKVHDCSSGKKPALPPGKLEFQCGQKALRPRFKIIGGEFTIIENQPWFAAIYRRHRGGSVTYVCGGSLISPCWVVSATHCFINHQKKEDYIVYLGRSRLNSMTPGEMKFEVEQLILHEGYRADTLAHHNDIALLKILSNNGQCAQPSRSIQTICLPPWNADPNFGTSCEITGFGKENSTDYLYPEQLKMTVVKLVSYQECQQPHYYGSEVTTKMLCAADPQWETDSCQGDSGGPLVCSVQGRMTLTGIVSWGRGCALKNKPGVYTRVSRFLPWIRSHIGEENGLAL
Description: Both eyes in each of 8 rabbits underwent PRK treatment. One eye of each rabbit was treated with a serine protease inhibitor (SPI) over the first 7 days to inactivate uPA in the tears and on the surface of the cornea. uPA in the tear samples was measured by a spectrophotometric method using human plasminogen and chromogenic peptide substrate S-2251.
Materials and Methods Sixteen eyes of eight normal healthy New Zealand rabbits (3.0–3.5 kg) underwent PRK surgery for spherical correction using the Schwind Keratom II ArF excimer laser (193 nm), performed by the same surgeon at Vital-Laser LLC, Department of Ophthalmology, University Medical School of Debrecen. Animals were handled and treated in adherence to the ARVO Statement for the Use of Animals in Ophthalmic and Vision Research. De-epithelialization was performed with a blunt Keratome Blade knife after epithelial marking with a 6.0–6.5 mm Hoffer trephine. The epithelium was scraped gently from periphery to center. Residual epithelial debris was removed with a sterile microsponge.
Topical anesthetic (0.4% oxybuprocaine hydrochloride) eye drops were administered twice before the surgery. General anesthesia was accomplished by intravenous injection of ketamine-xylazine (2.2:1 ratio, 10 mg/kg). The PRK surgeries were performed on the morning of day 1. The postoperative treatment included antibiotic eye drops, Ciloxan (Alcon), twelve times (hourly) on day 1 and five times (every two hours) on five additional days (postoperative days 2–5 and 7). FLUCON™ (Alcon) and TEARS NATURALE™ (Alcon) were given 5 times daily (every two hours) during the first postoperative month, reduced to 4 times daily (every three hours) for the second month and 3 times daily (every four hours) for the third month. All rabbits received follow-up examinations at 1, 3 and 6 months following the PRK procedure.
In addition, the left eye of each rabbit received 1 drop of 10,000 KIE/ml serine protease inhibitor (SPI), aprotinin (Gordox, Richter Gideon Rt., Budapest), twelve times (hourly) on day 1 and five times (every two hours) on five additional days (postoperative days 2–5 and 7). This was designated the “With-SPI” group. The right eyes were not treated with SPI and were designated the “No-SPI” group. After the seventh day, identical treatment was used on both eyes. No other treatment was used during the six month follow-up period. […] Lottenberg R, Sjak-Shie N, Fazleabas A T, Roberts R M. Aprotinin inhibits urokinase but not tissue-type plasminogen activator. Thromb Res 1988;49:549–556; and Fritz H, Wunderer G. Biochemistry and applications of aprotinin, the kallikrein inhibitor from bovine organs. Arzneim Forsch 1983;33:479–494.
Tear samples for plasminogen activator activity analyses were obtained on the day before the PRK surgery (day 0). Tear samples were collected within minutes after PRK (day 1), before treatment with any eye drops. Daily on postoperative days 2–5, on postoperative day 7 and every fourth day thereafter for three months (91 days), tears were sampled in the morning prior to the administration of any eye drops on the given day so that SPI treatment would not change the uPA levels.
Samples consisted of tears collected with glass capillaries using i.m. injection of pilocarpine hydrochloride (5 mg/kg) for stimulation. Tears were taken from the lower tear meniscus and care was taken not to touch the conjunctiva. The same collection method was used throughout the study. The duration of the sampling time was recorded and the secretion rate was calculated in μl/min, dividing the obtained tear volume by the time of sample collection. Samples used in this investigation had secretion rates of 15–50 μl/min. Samples were centrifuged (1800 rpm) for 8–10 minutes right after sample collection and supernatants were immediately deep-frozen at −80° C. and were thawed only once for measurements. […]

[3] = target: urokinase-type plasminogen activator (Homo sapiens, UniProt P00749); settings: cited from earlier work

Compound: urokinase
- Endothelial mosaic under scanning electron microscopic scrutiny [1]: retains a normal endothelial mosaic
- Swelling of rabbit corneas [1]: does not induce meaningful swelling
- Toxicity to rabbit corneal endothelium [1]: non-toxic

Compound: CO[C@@]12[C@H](COC(N)=O)C3=C(C(=O)C(C)=C(N)C3=O)N1C[C@@H]1N[C@@H]12 [mitomycin C]
- Effect on corneal haze after PRK (corneal haze after PRK): reduce haze after PRK

Compound: aprotinin [SPI]
- Day by which mean uPA levels returned to preoperative levels ([2]; SPI-treated rabbit eyes, SPI over first 7 days): 15 days
- uPA activity, mean value averaged over days 1–7 ([2]; SPI-treated rabbit eyes, period of SPI suppression): 0.13 (0.15) IU/ml
- Mean uPA activity on days 1–7 lower than the equilibrium plasminogen activator activity level ([2]; SPI-treated rabbit eyes, versus days 19–91 level, p<0.001): 95%
- PAA: With-SPI, mean (SD), equilibrium level ([2]; averaged over days 19–91, rabbit tears): 2.88 (0.22) IU/ml
- PAA: With-SPI, mean (SD) ([2]; day 0 (day before PRK, before SPI), rabbit tears, 8 eyes): 2.77 (0.26) IU/ml
- PAA: With-SPI, mean (SD) ([2]; day 1 (within minutes after PRK, before eye drops), rabbit tears): 0.42 (0.47) IU/ml
- PAA: With-SPI, mean (SD) ([2]; day 2, rabbit tears, sampled in the morning before SPI drops, 10,000 KIE/ml SPI): 0.18 (0.21) IU/ml
- PAA: With-SPI, mean (SD) ([2]; day 3, rabbit tears, sampled before SPI drops): 0.04 (0.03) IU/ml
- PAA: With-SPI, mean (SD) ([2]; day 4, rabbit tears, sampled before SPI drops): 0.03 (0.04) IU/ml
- PAA: With-SPI, mean (SD) ([2]; day 5, rabbit tears, sampled before SPI drops): 0.05 (0.05) IU/ml
- PAA: With-SPI, mean (SD) ([2]; day 7, rabbit tears, sampled before SPI drops): 0.05 (0.04) IU/ml
- PAA: With-SPI, mean (SD) ([2]; day 11 (after end of SPI treatment), rabbit tears): 2.63 (0.18) IU/ml
- PAA: With-SPI, mean (SD) ([2]; day 15, rabbit tears): 2.76 (0.18) IU/ml
- Inhibition of plasminogen activator (urokinase) activity [3]: effective inhibitor of plasminogen activator activity
- Inhibition of plasminogen activator (urokinase) activity ([3]; listed as Aprotinin): especially effective for inhibiting urokinase
